Experiments:
Type in all cases: cell-based
VCP/mtHtt interaction = biological target: T1, VCP/mtHtt interaction (Homo sapiens, UniProt P55072); experiment: Co-immunoprecipitation of GFP-VCP and Myc-73Q FL (mtHtt) in HEK293 cells; conditions: HEK293, Myc-73Q FL + GFP-VCP, 48 h
T1 construct: The full-length VCP wt and GFP-LC3B plasmids were obtained from Addgene; expressed in transfected cells; host or cells: HEK293
Description: (b) Stick drawings of VCP and Htt main domains. […] Immunoprecipitates were analysed by WB with the indicated antibodies. […] VCP mitochondrial levels were determined by WB. Loading control: VDAC. Data are mean±s.e.m. (g–i) ANOVA with Holm-Sidak post hoc test.
Myc-tagged full-length Htt with 23Q or 73Q plasmid was obtained from the CHDI foundation. The full-length VCP wt and GFP-LC3B plasmids were obtained from Addgene. To construct the mitochondria-targeting VCP plasmid, CMV-mito-GEM-GECO1 was digested with BamHI and HindIII, and VCP was PCR-amplified and inserted into the plasmid backbone. Site mutation of the VCP plasmid was performed using a site-mutagenesis kit (Agilent Technologies, Inc.). Cells were transfected with TransIT-2020 (Mirus Bio, LLC) following the manufacturer's protocol.
Human cervix carcinoma cells (HeLa cells) and HEK293 cells were maintained in DMEM supplemented with 10% FBS and 1% (v/v) penicillin/streptomycin.
Supplementary Figure 4: Rational design of a peptide inhibitor to block VCP/Htt interaction. […] Quantitation of VCP/Htt binding was shown below the blot as the m ean of three independent experiments. […] The blots of the bindings of mtHtt/VCP were quantitated with NIH Image J software. The IC50 was calculated. […]

HD mouse striatal cells [1] = experiment: Caspase-3 activity (apoptosis); conditions: 24 h serum starvation, HV-3
Description: (§1) mouse striatal cells were treated with thapsigargin (1μM) or tunicamycin (10μ g/ml) for 16 hours i n the presence or absence of HV -3 (3 µM). GRP78 total protein levels were determined by western blot analysis. Representative blots of three independent experiments are shown. Actin was used here as a loading control. (b) Tw e n t y -four hours of serum starvation was performed in HD mouse striatal cells.
(§2) Caspase-3 activity analysis was performed in the indicated groups. Data are mean ± SEM of three independent experiments. (c) Flag-VCP and GFP-LC3B were co-transfected into HdhQ7 striatal cells.
(§3) Total lysates were isolated after 36 hours of transfection. The GFP -LC3B levels were examined by western blot analysis. Actin was used as a loading control. Histogram: quantitation of GFP-LC3B total protein level. Data are mean ± SEM of three independent experiments.
(§4) (1 picture or pasted object on this page, not shown here)

HD mouse striatal cells [2] = experiment: ER stress response (GRP78 western blot); conditions: thapsigargin 1 μM or tunicamycin 10 μg/ml, 16 h, with HV-3 3 µM
Description: as §1, §2, §3, §4

## CSCC[C@H](NC(=O)[C@@H](NC(=O)[C@H](CC(C)C)NC(=O)[C@@H](NC(=O)[C@H](Cc1c[nH]cn1)NC(=O)CCCCCNC(=O)[C@H](CCCNC(=N)N)NC(=O)[C@H](CCCNC(=N)N)NC(=O)[C@H](CCCNC(=N)N)NC(=O)[C@H](CCC(N)=O)NC(=O)[C@H](CCCNC(=N)N)NC(=O)[C@H](CCCNC(=N)N)NC(=O)[C@H](CCCCN)NC(=O)[C@H](CCCCN)NC(=O)[C@H](CCCNC(=N)N)NC(=O)CNC(=O)[C@@H](N)Cc1ccc(O)cc1)C(C)C)C(C)C)C(=O)N[C@@H](CS)C(=O)N[C@@H](C)C(=O)N[C@H](C(N)=O)[C@@H](C)O [HV-3]
VCP/mtHtt interaction; 0 to 4 µM, IP/WB quantitated, read-out: IC50 blocking VCP/mtHtt interaction
  IC50: 2110 nM
VCP/mtHtt interaction; 3 µM/day, n = 3
  block of VCP/mtHtt interaction: only HV-3 peptide significantly blocked the VCP/mtHtt interaction
HD mouse striatal cells [1]
  apoptosis (caspase-3 activity): did not affect apoptosis
HD mouse striatal cells [2]
  ER stress response (GRP78): no effect on the ER stress response

Reference: publication PMC5007466, “VCP recruitment to mitochondria causes mitophagy impairment and neurodegeneration in models of Huntington's disease” (Nature Communications, 2016)
